Among the data in patent publication US20250120967A1, “TYROSINE KINASES INHIBITORS AND USES THEREOF” (GREAT NOVEL THERAPEUTICS BIOTECH & MEDICALS CORPORATION, priority 2023, published 2025) are inhibition values, retold here.

Test in all cases: Tyrosine kinase inhibition assay
Common to all, as to format: biochemical
Holding throughout (conditions): single concentration 1.0 μM, read-out: percent inhibition

For assay [1], the target named is BLK (Homo sapiens, UniProt P51451). Summed up: (§1)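 Kinase activity was measured by Z′-LYTE peptide assay with ATP at the apparent Km, in kinase buffer (50 mM HEPES pH 7.5, 0.01% BRIJ-35, 10 mM MgCl2, 1 mM EGTA) with 1% DMSO final. Compounds were tested at a single 1.0 μM concentration and reported as percent inhibition; >80% counted as a hit.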
BLK, sequence (P51451 whole entry): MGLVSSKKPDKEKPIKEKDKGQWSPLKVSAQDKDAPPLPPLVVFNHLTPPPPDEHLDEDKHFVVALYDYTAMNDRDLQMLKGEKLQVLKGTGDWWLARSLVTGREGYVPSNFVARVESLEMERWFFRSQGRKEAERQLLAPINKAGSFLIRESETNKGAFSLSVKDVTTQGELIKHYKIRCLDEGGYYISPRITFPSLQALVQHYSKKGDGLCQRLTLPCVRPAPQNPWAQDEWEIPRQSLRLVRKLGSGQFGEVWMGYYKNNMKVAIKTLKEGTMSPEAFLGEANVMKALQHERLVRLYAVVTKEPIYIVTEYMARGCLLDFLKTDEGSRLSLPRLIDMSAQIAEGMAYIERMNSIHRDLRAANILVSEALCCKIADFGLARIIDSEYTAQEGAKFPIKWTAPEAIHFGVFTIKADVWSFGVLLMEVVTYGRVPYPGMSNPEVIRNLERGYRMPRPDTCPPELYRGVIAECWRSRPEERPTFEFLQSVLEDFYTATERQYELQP
The target in assay [2] is FGFR2 (Homo sapiens, UniProt P21802). The method, boiled down: as §1
FGFR2, sequence (P21802 22-821): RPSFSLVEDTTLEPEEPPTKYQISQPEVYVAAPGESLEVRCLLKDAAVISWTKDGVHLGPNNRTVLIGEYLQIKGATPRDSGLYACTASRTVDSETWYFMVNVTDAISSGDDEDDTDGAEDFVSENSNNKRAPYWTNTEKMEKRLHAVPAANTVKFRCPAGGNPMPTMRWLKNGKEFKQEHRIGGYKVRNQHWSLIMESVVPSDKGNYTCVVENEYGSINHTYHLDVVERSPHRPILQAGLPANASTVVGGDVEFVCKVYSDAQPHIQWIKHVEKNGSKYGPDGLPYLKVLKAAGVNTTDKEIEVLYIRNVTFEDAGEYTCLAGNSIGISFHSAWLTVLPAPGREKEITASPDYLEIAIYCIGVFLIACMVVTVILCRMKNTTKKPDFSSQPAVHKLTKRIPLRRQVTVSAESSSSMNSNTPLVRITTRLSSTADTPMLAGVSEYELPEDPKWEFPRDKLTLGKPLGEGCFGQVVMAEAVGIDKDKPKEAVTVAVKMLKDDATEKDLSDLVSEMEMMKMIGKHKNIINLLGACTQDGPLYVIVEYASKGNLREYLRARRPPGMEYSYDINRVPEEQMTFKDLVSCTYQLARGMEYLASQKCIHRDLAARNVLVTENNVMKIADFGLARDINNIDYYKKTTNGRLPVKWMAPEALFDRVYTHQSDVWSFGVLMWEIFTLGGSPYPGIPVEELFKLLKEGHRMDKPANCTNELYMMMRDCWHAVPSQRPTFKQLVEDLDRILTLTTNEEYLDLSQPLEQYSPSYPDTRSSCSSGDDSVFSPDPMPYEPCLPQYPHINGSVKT
Assay [3] concerns the target SYK (Homo sapiens, UniProt P43405). The method, boiled down: as §1
For assay [4], the target named is T1, EPHB3 (Homo sapiens, UniProt P54753).
T1 sequence (P54753 34-998): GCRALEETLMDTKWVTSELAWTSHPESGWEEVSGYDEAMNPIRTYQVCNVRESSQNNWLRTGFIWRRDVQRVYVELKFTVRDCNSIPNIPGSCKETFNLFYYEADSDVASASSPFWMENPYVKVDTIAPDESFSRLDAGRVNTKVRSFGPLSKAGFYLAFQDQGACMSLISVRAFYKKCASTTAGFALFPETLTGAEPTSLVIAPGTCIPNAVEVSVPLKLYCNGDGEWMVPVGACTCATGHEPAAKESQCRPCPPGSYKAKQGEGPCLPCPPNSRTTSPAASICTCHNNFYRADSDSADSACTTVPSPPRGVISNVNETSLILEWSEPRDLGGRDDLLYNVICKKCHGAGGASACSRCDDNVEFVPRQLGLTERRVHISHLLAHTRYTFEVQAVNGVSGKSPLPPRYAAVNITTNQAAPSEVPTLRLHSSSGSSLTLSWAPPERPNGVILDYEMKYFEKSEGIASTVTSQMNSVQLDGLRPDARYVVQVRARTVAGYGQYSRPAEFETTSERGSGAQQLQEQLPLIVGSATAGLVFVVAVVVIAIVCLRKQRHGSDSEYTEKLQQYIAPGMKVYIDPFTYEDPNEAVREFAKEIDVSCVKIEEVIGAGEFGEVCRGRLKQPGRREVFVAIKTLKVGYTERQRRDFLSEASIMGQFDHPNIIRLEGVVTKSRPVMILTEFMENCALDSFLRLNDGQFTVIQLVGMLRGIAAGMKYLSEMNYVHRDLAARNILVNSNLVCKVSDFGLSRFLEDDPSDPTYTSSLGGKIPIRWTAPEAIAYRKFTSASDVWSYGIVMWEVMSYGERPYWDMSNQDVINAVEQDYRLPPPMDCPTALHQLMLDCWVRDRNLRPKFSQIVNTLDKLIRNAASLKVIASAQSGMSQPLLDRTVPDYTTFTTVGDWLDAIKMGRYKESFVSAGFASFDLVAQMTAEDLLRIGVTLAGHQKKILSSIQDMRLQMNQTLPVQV
The method, boiled down:
as §1

Assay [5] addresses CSK (Homo sapiens, UniProt P41240). Summed up: as §1
Assay [6] concerns the target EGFR (ErbB1) (Homo sapiens, UniProt P00533). The method, then: (§2) Tyrosine kinase inhibition assays were performed at ThermoFisher Life Technologies (Madison, WI, USA) using standard protocols (SelectScreen Biochemical Profiling Service, Thermo Fisher Scientific). ATP concentrations used were at the apparent Km. Test compounds were screened in 1% dimethylsulffoxide (DMSO) (final concentration) in the well. For 10-point titrations, 3-fold serial dilutions were conducted from the starting concentration of […]. All Peptide/Kinase Mixtures were diluted to a 2× working concentration in the appropriate Kinase Buffer. All ATP Solutions were diluted to a 4× working concentration in Kinase Buffer (50 mM HEPES pH 7.5, 0.01% BRIJ-35, 10 mM MgCl2, 1 mM EGTA). The apparent ATP Km was previously determined using a Z′-LYTE assay. The Development Reagent was diluted in Development Buffer.
(§3) The inhibition activities of compounds were determined in biochemical assays using single concentration (1.0 μM) measurements. The results were provided as percent inhibition values. […] 99 different tyrosine kinases were used.

The target of assay [7] is FLT1 (VEGFR1) (Homo sapiens, UniProt P17948). The protocol:
as §2, §3

Assay [8] addresses PTK2 (FAK) (Homo sapiens, UniProt Q05397). The protocol:
as §2, §3

For assay [9], the target named is ABL1 (Homo sapiens, UniProt P00519). The method, then:
as §2, §3

FLT1 (VEGFR1), sequence (P17948 27-1338): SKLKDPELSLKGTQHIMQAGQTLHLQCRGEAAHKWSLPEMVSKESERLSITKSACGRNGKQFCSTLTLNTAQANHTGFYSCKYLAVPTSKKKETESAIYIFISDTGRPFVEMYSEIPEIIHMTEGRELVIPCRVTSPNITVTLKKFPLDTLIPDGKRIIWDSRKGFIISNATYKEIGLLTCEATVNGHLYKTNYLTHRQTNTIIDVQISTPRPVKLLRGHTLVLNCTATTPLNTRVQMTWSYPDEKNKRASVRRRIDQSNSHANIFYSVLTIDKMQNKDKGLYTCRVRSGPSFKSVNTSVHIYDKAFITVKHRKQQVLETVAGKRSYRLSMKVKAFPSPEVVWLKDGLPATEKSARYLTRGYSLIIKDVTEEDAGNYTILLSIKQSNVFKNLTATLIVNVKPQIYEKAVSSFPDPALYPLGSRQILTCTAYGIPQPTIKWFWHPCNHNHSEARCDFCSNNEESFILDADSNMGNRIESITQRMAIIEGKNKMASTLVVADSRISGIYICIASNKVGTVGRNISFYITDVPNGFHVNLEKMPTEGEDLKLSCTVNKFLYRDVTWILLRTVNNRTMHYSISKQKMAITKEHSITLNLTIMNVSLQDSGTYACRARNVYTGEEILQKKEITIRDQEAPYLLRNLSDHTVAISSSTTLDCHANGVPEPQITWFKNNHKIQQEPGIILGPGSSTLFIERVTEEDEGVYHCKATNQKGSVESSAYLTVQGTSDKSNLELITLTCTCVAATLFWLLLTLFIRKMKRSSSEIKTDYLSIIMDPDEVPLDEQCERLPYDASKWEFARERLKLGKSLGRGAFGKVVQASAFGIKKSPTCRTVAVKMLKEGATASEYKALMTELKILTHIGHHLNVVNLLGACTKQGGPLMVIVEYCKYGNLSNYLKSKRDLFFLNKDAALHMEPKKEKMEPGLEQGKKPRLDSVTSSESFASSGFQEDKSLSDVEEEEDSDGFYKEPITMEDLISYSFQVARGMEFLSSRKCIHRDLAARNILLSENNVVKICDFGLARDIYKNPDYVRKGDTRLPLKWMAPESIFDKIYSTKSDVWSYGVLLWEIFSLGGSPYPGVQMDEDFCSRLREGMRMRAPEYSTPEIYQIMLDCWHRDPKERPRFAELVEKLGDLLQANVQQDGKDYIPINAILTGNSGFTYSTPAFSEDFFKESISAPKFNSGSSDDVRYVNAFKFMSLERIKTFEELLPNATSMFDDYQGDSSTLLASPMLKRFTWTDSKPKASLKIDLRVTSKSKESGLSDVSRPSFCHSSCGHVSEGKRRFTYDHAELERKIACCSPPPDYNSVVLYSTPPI
CSK, sequence (P41240 whole entry): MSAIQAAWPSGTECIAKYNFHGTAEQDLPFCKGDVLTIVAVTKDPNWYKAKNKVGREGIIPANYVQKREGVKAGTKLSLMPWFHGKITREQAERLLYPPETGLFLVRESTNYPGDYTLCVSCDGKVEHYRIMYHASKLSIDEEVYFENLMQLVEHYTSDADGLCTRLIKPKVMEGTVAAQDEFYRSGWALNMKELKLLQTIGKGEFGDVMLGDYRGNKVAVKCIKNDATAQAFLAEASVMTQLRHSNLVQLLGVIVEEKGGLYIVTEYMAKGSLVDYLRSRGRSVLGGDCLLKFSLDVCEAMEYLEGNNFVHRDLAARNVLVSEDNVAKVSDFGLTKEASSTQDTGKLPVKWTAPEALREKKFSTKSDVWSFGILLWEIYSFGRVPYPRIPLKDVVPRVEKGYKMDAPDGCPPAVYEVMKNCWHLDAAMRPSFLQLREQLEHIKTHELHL
ABL1, sequence (P00519 whole entry): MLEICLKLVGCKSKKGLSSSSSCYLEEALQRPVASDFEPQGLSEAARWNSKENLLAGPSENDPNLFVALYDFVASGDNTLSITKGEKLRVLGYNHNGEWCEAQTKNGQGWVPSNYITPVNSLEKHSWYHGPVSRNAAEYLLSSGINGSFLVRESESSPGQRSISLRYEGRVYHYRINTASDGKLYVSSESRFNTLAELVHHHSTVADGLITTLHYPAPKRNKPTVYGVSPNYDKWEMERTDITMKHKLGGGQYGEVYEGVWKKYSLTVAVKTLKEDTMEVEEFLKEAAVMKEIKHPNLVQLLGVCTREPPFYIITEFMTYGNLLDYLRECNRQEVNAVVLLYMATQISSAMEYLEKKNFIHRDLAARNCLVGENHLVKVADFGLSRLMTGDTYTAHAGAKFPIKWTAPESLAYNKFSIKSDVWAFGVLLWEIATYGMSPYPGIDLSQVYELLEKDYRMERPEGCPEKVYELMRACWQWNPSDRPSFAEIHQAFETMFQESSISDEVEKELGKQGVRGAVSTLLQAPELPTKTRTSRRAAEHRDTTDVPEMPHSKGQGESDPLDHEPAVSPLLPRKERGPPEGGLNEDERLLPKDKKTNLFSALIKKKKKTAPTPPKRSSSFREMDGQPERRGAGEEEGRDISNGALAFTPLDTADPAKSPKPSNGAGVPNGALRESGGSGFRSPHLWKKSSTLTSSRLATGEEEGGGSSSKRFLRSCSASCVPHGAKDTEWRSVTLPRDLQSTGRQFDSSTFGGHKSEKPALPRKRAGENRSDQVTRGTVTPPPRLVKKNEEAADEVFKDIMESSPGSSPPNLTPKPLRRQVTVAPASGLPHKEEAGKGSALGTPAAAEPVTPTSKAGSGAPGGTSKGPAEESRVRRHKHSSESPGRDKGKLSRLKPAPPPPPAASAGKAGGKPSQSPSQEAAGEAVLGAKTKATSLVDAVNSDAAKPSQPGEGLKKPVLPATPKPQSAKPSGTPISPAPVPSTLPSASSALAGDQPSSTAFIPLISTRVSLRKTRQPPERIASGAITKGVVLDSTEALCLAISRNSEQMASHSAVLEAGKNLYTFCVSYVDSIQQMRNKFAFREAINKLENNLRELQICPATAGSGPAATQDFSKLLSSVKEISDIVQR

Consider `COc1cc2nccc(Oc3ccc(NC(=O)C4(C(=O)Nc5ccc(F)cc5)CC4)cc3)c2cc1OC` [Cabozantinib, reference compound], for which the inhibition at 1 µM in [1] was 83%; in [2] it was 16%; in assay [3] it was 16%; in assay [4], 54%; in assay [5], 49%; in assay [6], 32%. Moreover, in [7], the inhibition at 1 µM came out at 67%.

`COc1cc2nccc(Oc3ccc(NC(=O)C4(NC(=O)c5ccc(F)cc5)CC4)cc3F)c2cc1OC` [Cbo-02, N-(1-((4-((6,7-diMethoxyquinolin-4-yl)oxy)-3-fluorophenyl)carbamoyl)cyclopropyl)-4-fluorobenzamide]: the inhibition at 1 µM in [1] came to 61%; in assay [2], 22%; in assay [3] it was 14%; in [4], 4%; in assay [5] it was 87%; in assay [8], 20%. Moreover, the inhibition at 1 µM was found to be 44% in [6], 30% in assay [7] and 24% in assay [9].

With `COc1cc2nccc(Oc3ccc(NC(=O)C4(NC(=O)c5ccc(F)cc5)CC4)cc3F)c2cc1Oc1ccc(N)cc1F` [Cbo-10], the inhibition at 1 µM in assay [1] amounted to 80%; in assay [2], 29%; in assay [3], 24%; in assay [4], 6%; in assay [5] it was 97%; in assay [8], 33%. The inhibition at 1 µM turned out to be 88% in [6], 61% in assay [7] and 32% in [9].

For `COc1cc2nccc(Oc3ccc(NC(=O)C4(NC(=O)c5ccc(F)cc5)CC4)cc3F)c2cc1Oc1c(F)cc(N)cc1F` [Cbo-14], the inhibition at 1 µM came out at 80% in assay [1]; 37% in [2]; 27% in [3]; 6% in assay [4]; 97% in assay [5]; 29% in assay [8]. The inhibition at 1 µM was 89% in assay [6], 62% in assay [7] and 44% in assay [9].

In the case of `COc1cc2nccc(Oc3ccc(NC(=O)C4(C(=O)Nc5ccc(F)cc5)CC4)cc3F)c2cc1Oc1ccc(N)cc1F` [Cbo-23], the inhibition at 1 µM was determined as 93% in assay [1]; 5% in [2]; 15% in assay [3]; 55% in assay [4]; 66% in assay [5]; 66% in assay [8]. Also, the inhibition at 1 µM in assay [6] was 58%; in assay [7] it was 76%; in assay [9] it was 58%.
